Test results: ChEMBL document CHEMBL4043141, “Synthesis and biological investigation of tetrahydropyridopyrimidinone derivatives as potential multireceptor atypical antipsychotics” (Bioorg Med Chem, 2017)

What was measured:
in vitro [1] = conditions: human, liver microsomes
in vitro [2] = conditions: human, liver microsomes; remark: listed apart in the source

Row | Structure (SMILES) | remaining at 0.5 h, 2 µM (in vitro [1]) | remaining at 1 h, 2 µM (in vitro [2])
1 | Cc1nc2n(c(=O)c1CCN1CCC(c3noc4cc(F)ccc34)CC1)CCCC2 [RISPERIDONE] | 100% | 75%
2 | Cc1nc2n(c(=O)c1CCN1CCC(c3noc4cc(F)ccc34)CC1)CCCC2O (centres undefined) [PALIPERIDONE] | 100% | 100%
